Assays:
[1] = target: T1, Androgen receptor (AR) (Homo sapiens, UniProt P10275); assay: Androgen receptor (AR) reporter gene assay (ARE Luc); format: cell-based; conditions: AR+ARE/Luc HEK293T cells, with 11-KDHT, 24h incubation, Bright-Lite luminescence
T1 construct: expressed in transfected cells; host or cells: AR+ARE/Luc HEK293T cells
T1 sequence (P10275 1-920): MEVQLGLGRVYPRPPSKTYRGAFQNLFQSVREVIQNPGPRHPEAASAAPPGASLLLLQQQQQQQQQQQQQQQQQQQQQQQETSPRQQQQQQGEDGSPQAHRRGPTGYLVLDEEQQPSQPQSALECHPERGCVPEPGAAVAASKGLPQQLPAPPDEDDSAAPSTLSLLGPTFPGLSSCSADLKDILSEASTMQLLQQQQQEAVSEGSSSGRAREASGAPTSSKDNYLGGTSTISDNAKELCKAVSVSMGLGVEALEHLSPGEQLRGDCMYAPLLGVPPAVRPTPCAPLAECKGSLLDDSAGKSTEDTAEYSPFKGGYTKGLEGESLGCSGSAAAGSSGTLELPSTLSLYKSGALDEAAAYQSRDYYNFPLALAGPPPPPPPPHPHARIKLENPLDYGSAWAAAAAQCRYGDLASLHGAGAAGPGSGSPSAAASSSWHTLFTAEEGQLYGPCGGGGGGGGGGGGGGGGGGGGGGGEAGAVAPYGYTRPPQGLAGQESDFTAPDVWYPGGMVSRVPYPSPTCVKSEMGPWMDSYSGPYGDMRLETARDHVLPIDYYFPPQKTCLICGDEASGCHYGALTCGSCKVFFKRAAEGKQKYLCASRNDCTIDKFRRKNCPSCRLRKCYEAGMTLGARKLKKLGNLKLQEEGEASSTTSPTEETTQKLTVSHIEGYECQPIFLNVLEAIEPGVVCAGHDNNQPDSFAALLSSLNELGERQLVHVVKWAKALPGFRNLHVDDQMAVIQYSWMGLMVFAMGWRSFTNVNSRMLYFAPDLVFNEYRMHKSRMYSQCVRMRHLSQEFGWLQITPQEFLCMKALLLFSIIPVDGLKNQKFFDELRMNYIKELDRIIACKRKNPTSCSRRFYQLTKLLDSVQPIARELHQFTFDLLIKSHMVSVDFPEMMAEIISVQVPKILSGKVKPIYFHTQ
Method: Experimental Methods: 1. The described compounds were dissolved in 100% DMSO at a final concentration of 10 mM. 100 nL each of 400X compound to be tested and 400X 11-KDHT (40 nM) represtively were added to a 384-well assay plate with Echo, followed by 20 µL of complete medium, and centrifuged at 1000 rpm for 1 min, and oscillated for 20-30 min at room temperature. 2. 20 µL of AR+ARE/Luc HEK293T cells (10,000 cells/well) were inoculated into the assay plate containing the compounds and 11-KDHT, and centrifuged at 1000 rpm for 1 min. The assay plate was incubated in a 37 °C CO2 incubator for 24h. 3. 40 µL of Bright-Lite assay reagent was transferred to each well of the assay plate, centrifuged at 1000 rpm for 1 min, and shaken for 2 min at room temperature protected from light. 4. Luminescence values (RLU) were measured using Envision. […] Table 1. AR inhibition of Representative Compounds

[2] = target: T2, AR-V7 (Homo sapiens, UniProt P10275); assay: AR degradation experiment (AR-V7-HiBiT, Nano-Glo HiBiT Lytic Detection); format: cell-based; conditions: 22RV1 cells stably expressing AR-V7-HiBiT, 24 hr at 37 °C; concentration required for degradation 50% of the target protein
T2 construct: fusing HiBiT tag (PromegaTM) into the C-terminus of the AR-V7 genome of 22RV1 cells; host or cells: 22RV1 cells, CRISPR/Cas9 knock-in of HiBiT at the AR-V7 C-terminus
T2 sequence (P10275 1-644 isoform P10275-3): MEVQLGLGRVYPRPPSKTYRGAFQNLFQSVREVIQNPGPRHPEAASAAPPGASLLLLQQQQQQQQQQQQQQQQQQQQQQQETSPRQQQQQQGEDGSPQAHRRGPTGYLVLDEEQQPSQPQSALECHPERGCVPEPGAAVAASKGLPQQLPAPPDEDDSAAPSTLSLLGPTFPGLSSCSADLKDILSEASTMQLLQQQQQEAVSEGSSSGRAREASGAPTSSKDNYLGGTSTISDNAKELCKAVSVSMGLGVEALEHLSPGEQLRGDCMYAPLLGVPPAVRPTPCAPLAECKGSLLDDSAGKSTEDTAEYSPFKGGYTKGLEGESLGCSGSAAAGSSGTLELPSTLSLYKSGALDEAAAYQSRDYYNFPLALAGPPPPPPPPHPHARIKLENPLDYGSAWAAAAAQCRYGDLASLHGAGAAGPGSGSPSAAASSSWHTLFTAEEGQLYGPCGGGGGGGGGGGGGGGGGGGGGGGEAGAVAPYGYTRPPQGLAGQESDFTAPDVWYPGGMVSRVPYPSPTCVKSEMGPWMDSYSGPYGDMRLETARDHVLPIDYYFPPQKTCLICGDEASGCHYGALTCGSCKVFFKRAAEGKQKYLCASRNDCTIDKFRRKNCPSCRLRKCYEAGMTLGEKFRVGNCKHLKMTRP
Method: In this experiment, cells stably expressing AR-V7-HiBiT was constructed by fusing HiBiT tag (PromegaTM) into the C-terminus of the AR-V7 genome of 22RV1 cells (ATCC) using CRISPR/Cas9 technology. The concentration of test compounds started from 1000 nM, and diluted with DMSO by 3-fold gradient for 11 points. […]

SMILES	IC50 [1] [nM]	DC50 [2] [nM]
CCOc1c(C#N)cc2c(c1Cl)CCCC2Nc1ccc(OCCCNc2ccc3c(c2)C(=O)N(C2CCC(=O)NC2=O)C3=O)nc1 (stereo not shown) [HANT-312, 4-chloro-8-(6-(3-((2-(2,6-dioxopiperidin-3-yl)-1,3-dioxoisoindolin-5-yl)amino)propoxy)pyridin-3-ylamino)-3-ethoxy-5,6,7,8-tetrahydronaphthalene-2-carbonitrile]	377	–
N#Cc1cc2c(c(Cl)c1OCCCl)CCCC2c1cnc(NCCCNc2ccc3c(c2)C(=O)N(C2CCC(=O)NC2=O)C3=O)nc1 (stereo not shown) [HANT-314]	490	–
N#Cc1cc2c(c(Cl)c1OCCCl)CCCC2c1cnc(NCCOCCOc2ccc3c(c2)C(=O)N(C2CCC(=O)NC2=O)C3=O)nc1 (stereo not shown) [HANT-315, 4-chloro-3-(2-chloroethoxy)-8-(2-(2-(2-(2,6-dioxopiperidin-3-yl)-1,3-dioxoisoindolin-5-yl)oxy)ethoxy-amino)pyrimidin-5-yl-5,6,7,8-tetrahydronaphthalene-2-carbonitrile]	30	8.7
N#Cc1cc2c(c(Cl)c1OCCCl)CCC[C@H]2c1cnc(NCCOCCOc2ccc3c(c2)C(=O)N(C2CCC(=O)NC2=O)C3=O)nc1 (stereo partly shown) [HANT-315-P1]	2	4.3
N#Cc1cc2c(c(Cl)c1OCCCl)CCC[C@@H]2c1cnc(NCCOCCOc2ccc3c(c2)C(=O)N(C2CCC(=O)NC2=O)C3=O)nc1 (stereo partly shown) [HANT-315-P2]	3870	–
N#Cc1cc2c(c(Cl)c1OCCCl)CCCC2Nc1ccc(OCOCNc2ccc3c(c2)C(=O)N(C2CCC(=O)NC2=O)C3=O)nc1 (stereo not shown) [HANT-328]	1830	–
N#Cc1cc2c(c(Cl)c1OCCCl)CCCC2Nc1ccc(OCNc2ccc3c(c2)C(=O)N(C2CCC(=O)NC2=O)C3=O)nc1 (stereo not shown) [HANT-329]	123	–
N#Cc1cc2c(c(Cl)c1OCCCl)CCCC2Nc1ccc(OCCCCNc2ccc3c(c2)C(=O)N(C2CCC(=O)NC2=O)C3=O)nc1 (stereo not shown) [HANT-331, 4-chloro-3-(2-chloroethoxy)-8-((6-(4-(2-(2,6-dioxopiperidin-3-yl)-1,3-dioxoisoindolin-5-yl)amino)butoxy)pyridin-3-amino)-5,6,7,8-tetrahydronaphthalene-2-carbonitrile]	822	> 10000
N#Cc1cc2c(c(Cl)c1OCCCl)CCCC2c1ccc(OCCCCOc2ccc3c(c2)C(=O)N(C2CCC(=O)NC2=O)C3=O)nc1 (stereo not shown) [HANT-338]	657	> 10000
N#Cc1cc2c(c(Cl)c1OCCCl)CCCC2c1ccc(OCCCNc2ccc3c(c2)C(=O)N(C2CCC(=O)NC2=O)C3=O)nc1 (stereo not shown) [HANT-339]	569	–
N#Cc1cc2c(c(Cl)c1OCCCl)CCCC2c1cnc(N2CCC(OCCOc3ccc4c(c3)C(=O)N(C3CCC(=O)NC3=O)C4=O)CC2)nc1 (stereo not shown) [HANT-342]	27	40
N#Cc1cc2c(c(Cl)c1OCCCl)CCCC2c1ccc(NCCOCCOc2ccc3c(c2)C(=O)N(C2CCC(=O)NC2=O)C3=O)nc1 (stereo not shown) [HANT-346]	29	24
CCOc1c(C#N)cc2c(c1Cl)CCCC2c1cnc(NCCOCCOc2ccc3c(c2)C(=O)N(C2CCC(=O)NC2=O)C3=O)nc1 (stereo not shown) [HANT-354]	21	13
N#Cc1cc2c(c(Cl)c1OCCCl)CCCC2Nc1ccc(OCOCNc2cccc3c2C(=O)N(C2CCC(=O)NC2=O)C3=O)nc1 (stereo not shown) [HANT-362]	913	–
N#Cc1cc2c(c(Cl)c1OCCCl)CCCC2c1cnc(N2CCC(OCCCOc3ccc4c(c3)C(=O)N(C3CCC(=O)NC3=O)C4=O)CC2)nc1 (stereo not shown) [HANT-371, 4-chloro-3-(2-chloroethoxy)-8-(2-(4-(3-((2-(2,6-dioxopiperidin-3-yl)-1,3-dioxoisoindol-5-yl)oxy)propoxy)piperidin-1-yl)pyrimidin-5-yl)-5,6,7,8-tetrahydronaphthalene-2-carbonitrile]	292	284
N#Cc1cc2c(c(Cl)c1OCCCl)CCCC2c1cnc(N2CCC(OC3CN(c4ccc5c(c4)C(=O)N(C4CCC(=O)NC4=O)C5=O)C3)CC2)nc1 (stereo not shown) [HANT-390]	476	–
N#Cc1cc2c(c(Cl)c1OCCCl)CCCC2c1cnc(N2CCC(OCCNc3ccc4c(c3)C(=O)N(C3CCC(=O)NC3=O)C4=O)C2)nc1 (stereo not shown) [HANT-393]	428	–
CCOc1c(C#N)cc2c(c1Cl)CCCC2c1cnc(NCCOC2CN(c3ccc4c(c3)C(=O)N(C3CCC(=O)NC3=O)C4=O)C2)nc1 (stereo not shown) [HANT-431, 4-chloro-8-(2-((2-(2-(1-(2-(2,6-dioxopiperidin-3-yl)-1,3-dioxoisoindol-5-yl)azetidin-3-yl)oxy)ethyl)amino)pyrimidin-5-yl)-3-ethoxy-5,6,7,8-tetrahydronaphthalene-2-carbonitrile]	744	–
N#Cc1cc2c(c(Cl)c1OCCCl)CCCC2c1ccc(N2CCC(OCCCOc3ccc4c(c3)C(=O)N(C3CCC(=O)NC3=O)C4=O)CC2)nc1 (stereo not shown) [HANT-512]	318	–
N#Cc1cc2c(c(Cl)c1OCCCl)CCCC2c1ccc(N2CC(OCCOc3ccc4c(c3)C(=O)N(C3CCC(=O)NC3=O)C4=O)C2)nc1 (stereo not shown) [HANT-513]	7.6	–
N#Cc1cc2c(c(Cl)c1OCCCl)CCCC2c1ccc(N2CCC(OCCOc3ccc4c(c3)C(=O)N(C3CCC(=O)NC3=O)C4=O)CC2)nc1 (stereo not shown) [HANT-514]	73	–
N#Cc1cc2c(c(Cl)c1OCCCl)CCCC2c1cnc2c(cnn2CCOCCOc2ccc3c(c2)C(=O)N(C2CCC(=O)NC2=O)C3=O)c1 (stereo not shown) [HANT-515]	754	–
N#Cc1cc(C2CCCc3c2cc(C#N)c(OCCCl)c3Cl)cnc1N1CC(OCCOc2ccc3c(c2)C(=O)N(C2CCC(=O)NC2=O)C3=O)C1 (stereo not shown) [HANT-516]	32	–
N#Cc1cc2c(c(Cl)c1OCCCl)CCCC2c1ccc(OC2CCC(Oc3ccc4c(c3)C(=O)N(C3CCC(=O)NC3=O)C4=O)CC2)nc1 (stereo not shown) [HANT-517]	575	–
N#Cc1cc2c(c(Cl)c1OCCCl)CCCC2c1ccc(OC2CCC(OCCOc3ccc4c(c3)C(=O)N(C3CCC(=O)NC3=O)C4=O)CC2)nc1 (stereo not shown) [HANT-518]	209	–
N#Cc1cc2c(c(Cl)c1OCCCl)CCCC2c1cnc(N2CC(OCCOc3ccc4c(c3)C(=O)N(C3CCC(=O)NC3=O)C4=O)C2)nc1 (stereo not shown) [HANT-519]	23	–

Reference: EP4722206A1, “BENZO(HETERO)CYCLOALKYL COMPOUNDS FOR ANDROGEN RECEPTOR-DEPENDENT DISEASES” (Haihe Biopharma Co., Ltd., priority 2023, dated 2024)
